Patent US20240208912A1 (Mirati Therapeutics, Inc., priority 2021, published 2024)
Like-named read-outs stand apart in the source and are kept apart here.

Experiments:
PRMT5/MEP50 complex = molecular target: T1, PRMT5/MEP50 complex (Homo sapiens, UniProt O14744); test: PRMT5:MEP50 HotSpot Assay (full-length histone H2A substrate, plus and minus MTA); format: biochemical; conditions: IC50 + 2 μM MTA, in the presence of 2 μM MTA
T1 construct: purchased Reaction Biology Corporation
Description: The PRMT5 inhibitory activity of compounds of the present invention was determined using either a PRMT5:MEP50 FlashPlate Assay (Reaction Biology Corporation) or a PRMT5:MEP50 HotSpot Assay (Reaction Biology Corporation).
The assay uses recombinant full-length hi stone H2A as the PRMT5 substrate. […] The reaction was stopped and transferred to filter paper for detection. The amount of tritiated H2A in each sample was determined using a scintillation counter.

[1] = test system: HCT116 homozygous MTAP knockout cells; test: Proliferation assay (CellTiter-Glo, 10 days) in HCT116 homozygous MTAP knockout cells; format: cell-based; conditions: CellTiter-Glo after 10 days of treatment, read-out: Proliferation IC50 (nM) HCT116 MTAP_KO
Description: HCT116 cells were genetically engineered to knock out the function of both MTAP alleles using a CRISPR/Cas9 system and an sgRNA targeting the MTAP gene. Following Cas9/MTAP sgRNA transduction, clones were screened to confirm that each allele of the MTAP gene had been inactivated (i.e., homozygous MTAP knock out) creating an MTAP-deficient cell.
Control samples were analyzed in parallel.
Briefly, on Day 0, 250 HCT116 parental or HCT116 homozygous MTAP knockout cell were seeded in 96 well plates in McCoy's 5A supplemented with […] fetal bovine serum and pen/strep and the cells were incubated overnight at 37° C. plus 5% CO2.
The following day, cells were treated with DMSO vehicle control or a dose response of PRMT5 inhibitors and incubated at 37 C plus 5% CO2 for five days. On Day 6, the cells were trypsinized and split 1:10 into new 96-well plates with fresh medium containing the same concentration of PRMT5 inhibitor and incubated for an additional 5 days at 37° C. plus 5% CO^2.
On Day 11, the viability of the cells was measured using a CTG assay kit (CellTiter-Glo; Promega cat.no G7573) in accordance with the manufacturer's instructions. The IC50 values for each compound after 10 days of treatment were calculated using GraphPad PRISM software.

T1 sequence (O14744 2-637 limits assumed): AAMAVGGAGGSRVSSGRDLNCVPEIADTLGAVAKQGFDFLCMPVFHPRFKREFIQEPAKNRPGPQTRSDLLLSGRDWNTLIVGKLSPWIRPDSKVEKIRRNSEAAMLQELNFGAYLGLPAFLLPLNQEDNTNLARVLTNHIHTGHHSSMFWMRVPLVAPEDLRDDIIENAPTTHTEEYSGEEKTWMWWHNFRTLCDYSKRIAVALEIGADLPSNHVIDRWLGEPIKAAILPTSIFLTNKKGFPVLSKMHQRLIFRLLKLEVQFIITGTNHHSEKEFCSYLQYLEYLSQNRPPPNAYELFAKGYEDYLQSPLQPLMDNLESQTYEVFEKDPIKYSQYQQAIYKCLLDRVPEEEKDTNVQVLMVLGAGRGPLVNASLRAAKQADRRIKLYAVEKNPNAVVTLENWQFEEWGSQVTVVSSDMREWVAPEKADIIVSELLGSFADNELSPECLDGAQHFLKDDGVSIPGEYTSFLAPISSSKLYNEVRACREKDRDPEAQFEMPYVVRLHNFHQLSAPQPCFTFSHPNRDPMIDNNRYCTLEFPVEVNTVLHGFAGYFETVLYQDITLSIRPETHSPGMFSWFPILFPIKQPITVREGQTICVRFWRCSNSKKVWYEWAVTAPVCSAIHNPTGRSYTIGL
T1 sequence (Q9BQA1 2-342 partner limits assumed): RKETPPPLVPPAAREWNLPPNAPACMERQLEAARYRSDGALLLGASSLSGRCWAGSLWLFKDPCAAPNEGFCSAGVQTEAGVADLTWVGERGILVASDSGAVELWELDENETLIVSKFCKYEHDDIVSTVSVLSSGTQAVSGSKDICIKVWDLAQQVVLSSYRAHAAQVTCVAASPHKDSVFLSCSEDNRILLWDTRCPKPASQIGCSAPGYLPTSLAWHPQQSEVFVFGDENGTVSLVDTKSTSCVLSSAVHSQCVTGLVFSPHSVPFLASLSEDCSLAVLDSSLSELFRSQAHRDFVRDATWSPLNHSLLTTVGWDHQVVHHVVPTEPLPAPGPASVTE

SMILES	IC50 (PRMT5/MEP50 complex) [nM]	IC50 ([1]; Homo sapiens, HCT-116, 240 h) [nM]	IC50 [1] [nM]
Cc1cnc2cc(F)c(-c3c(-c4ccc5c(=O)[nH]nc(CN)c5c4)cnn3C)c(C#N)c2c1 (atropisomer, axis not shown; (M)) [Example 16-35, (M)-6-[4-[4-(aminomethyl)-1-oxo-2H-phthalazin-6-yl]-2-methyl-pyrazol-3-yl]-7-fluoro-3-methyl-quinoline-5-carbonitrile]	84	5	
Cn1ncc(-c2ccc3c(=O)[nH]nc(CN)c3c2)c1-c1c(F)cc2c(c1C#N)OCCC2 (atropisomer, axis not shown; (M)) [Example 16-38, (M)-7-[4-[4-(aminomethyl)-1-oxo-2H-phthalazin-6-yl]-2-methyl-pyrazol-3-yl]-6-fluoro-chromane-8-carbonitrile]	83.8		39
C[C@@H]1C[C@H]1Oc1ccc(F)c(-c2c(-c3ccc4c(=O)[nH]nc(CN)c4c3)cnn2C)c1C#N (atropisomer, axis not shown; (M)) [Example 16-66, (M)-2-(4-(4-(aminomethyl)-1-oxo-1,2-dihydrophthalazin-6-yl)-1-methyl-1H-pyrazol-5-yl)-3-fluoro-6-((1R,2R)-2-methylcyclopropoxy)benzonitrile]	107		35
COc1cc(F)c(-c2c(-c3ccc4c(=O)[nH]nc(CN)c4c3)cnn2C)c(C#N)c1OC1CC1 (atropisomer, axis not shown; (M)) [Example 16-71, (M)-2-[4-[4-(aminomethyl)-1-oxo-2H-phthalazin-6-yl]-2-methyl-pyrazol-3-yl]-6-(cyclopropoxy)-3-fluoro-5-methoxy-benzonitrile]	142		50
CCOc1cc(-c2cnn(C)c2-c2c(F)ccc(OC3CC3)c2C#N)cc2c(CN)n[nH]c(=O)c12 (atropisomer, axis not shown; (M)) [Example 16-74, (M)-2-[4-[4-(aminomethyl)-8-ethoxy-1-oxo-2H-phthalazin-6-yl]-2-methyl-pyrazol-3-yl]-6-(cyclopropoxy)-3-fluoro-benzonitrile]	346		158
Cn1ncc(-c2ccc3c(=O)[nH]nc(CN)c3c2)c1-c1c(F)cc2c(c1C#N)OCO2 (atropisomer, axis not shown; (M)) [Example 16-88, (M)-5-[4-[4-(aminomethyl)-1-oxo-2H-phthalazin-6-yl]-2-methyl-pyrazol-3-yl]-6-fluoro-1,3-benzodioxole-4-carbonitrile]	181		173
Cc1cnc2c(C#N)c(-c3c(-c4ccc5c(=O)[nH]nc(CN)c5c4)cnn3C)c(F)c(C)c2c1 (atropisomer, axis not shown; (M)) [Example 16-94, (M)-7-(4-(4-(aminomethyl)-1-oxo-1,2-dihydrophthalazin-6-yl)-1-methyl-1H-pyrazol-5-yl)-6-fluoro-3,5-dimethylquinoline-8-carbonitrile]	1140		231
Cn1ncc(-c2ccc3c(=O)[nH]nc(CN)c3c2)c1-c1c(F)cc2c(c1C#N)OCCC2 (atropisomer, axis not shown; (P)) [Example 16-37, (P)-7-[4-[4-(aminomethyl)-1-oxo-2H-phthalazin-6-yl]-2-methyl-pyrazol-3-yl]-6-fluoro-chromane-8-carbonitrile]	102		216
C[C@@H]1C[C@H]1Oc1ccc(F)c(-c2c(-c3ccc4c(=O)[nH]nc(CN)c4c3)cnn2C)c1C#N (atropisomer, axis not shown; (P)) [Example 16-65, (P)-2-(4-(4-(aminomethyl)-1-oxo-1,2-dihydrophthalazin-6-yl)-1-methyl-1H-pyrazol-5-yl)-3-fluoro-6-((1R,2R)-2-methylcyclopropoxy)benzonitrile]	204		187
COc1cc(F)c(-c2c(-c3ccc4c(=O)[nH]nc(CN)c4c3)cnn2C)c(C#N)c1OC1CC1 (atropisomer, axis not shown; (P)) [Example 16-72, (P)-2-[4-[4-(aminomethyl)-1-oxo-2H-phthalazin-6-yl]-2-methyl-pyrazol-3-yl]-6-(cyclopropoxy)-3-fluoro-5-methoxy-benzonitrile]	113		461
CCOc1cc(-c2cnn(C)c2-c2c(F)ccc(OC3CC3)c2C#N)cc2c(CN)n[nH]c(=O)c12 (atropisomer, axis not shown; (P)) [Example 16-73, (P)-2-[4-[4-(aminomethyl)-8-ethoxy-1-oxo-2H-phthalazin-6-yl]-2-methyl-pyrazol-3-yl]-6-(cyclopropoxy)-3-fluoro-benzonitrile]	909		1070
Cn1ncc(-c2ccc3c(=O)[nH]nc(CN)c3c2)c1-c1c(C#N)cc2cccnc2c1Cl (atropisomer, axis not shown; (P)) [Example 16-83, (P)-7-(4-(4-(aminomethyl)-1-oxo-1,2-dihydrophthalazin-6-yl)-1-methyl-1H-pyrazol-5-yl)-8-chloroquinoline-6-carbonitrile]	446		1690
Cc1cnc2c(C#N)c(-c3c(-c4ccc5c(=O)[nH]nc(CN)c5c4)cnn3C)c(F)c(C)c2c1 (atropisomer, axis not shown; (P)) [Example 16-93, (P)-7-(4-(4-(aminomethyl)-1-oxo-1,2-dihydrophthalazin-6-yl)-1-methyl-1H-pyrazol-5-yl)-6-fluoro-3,5-dimethylquinoline-8-carbonitrile]	821		3290
Cc1c(F)c(-c2c(-c3cc(Cl)c4c(=O)[nH]nc(CN)c4c3)cnn2C)c(C#N)c2ncc(Cl)cc12 (atropisomer, axis not shown; (P)) [Example 16-97, (P)-7-(4-(4-(aminomethyl)-8-chloro-1-oxo-1,2-dihydrophthalazin-6-yl)-1-methyl-1H-pyrazol-5-yl)-3-chloro-6-fluoro-5-methylquinoline-8-carbonitrile]	> 1000	1860	
Cn1ncc(-c2cc(Cl)c3c(=O)[nH]nc(CN)c3c2)c1-c1c(F)cc2ccccc2c1C#N (single isomer, unassigned) [Example 16-11, (P)-2-(4-(4-(aminomethyl)-8-chloro-1-oxo-1,2-dihydrophthalazin-6-yl)-1-methyl-1H-pyrazol-5-yl)-3-fluoro-1-naphthonitrile]	102		5
Cn1ncc(-c2cc(Cl)c3c(=O)[nH]nc(CN)c3c2)c1-c1c(F)cc2ccccc2c1C#N (single isomer, unassigned) [Example 16-12, (M)-(4-(4-(aminomethyl)-8-chloro-1-oxo-1,2-dihydrophthalazin-6-yl)-1-methyl-1H-pyrazol-5-yl)-3-fluoro-1-naphthonitrile]	26.4		12
Cc1cc(OC2CC2)c(C#N)c(-c2c(-c3ccc4c(=O)[nH]nc(CN)c4c3)cnn2C)c1F (single isomer, unassigned) [Example 16-19, (P)-2-[4-[4-(aminomethyl)-1-oxo-2H-phthalazin-6-yl]-2-methyl-pyrazol-3-yl]-6-(cyclopropoxy)-3-fluoro-4-methyl-benzonitrile]	173		1070
Cc1cc(OC2CC2)c(C#N)c(-c2c(-c3ccc4c(=O)[nH]nc(CN)c4c3)cnn2C)c1F (single isomer, unassigned) [Example 16-20, (M)-2-[4-[4-(aminomethyl)-1-oxo-2H-phthalazin-6-yl]-2-methyl-pyrazol-3-yl]-6-(cyclopropoxy)-3-fluoro-4-methyl-benzonitrile]	36		13
COCc1ccc2c(C#N)c(-c3c(-c4ccc5c(=O)[nH]nc(CN)c5c4)cnn3C)sc2c1 [Example 4-271, 2-(4-(4-(aminomethyl)-1-oxo-1,2-dihydrophthalazin-6-yl)-1-methyl-1H-pyrazol-5-yl)-6-(methoxymethyl)benzo[b]thiophene-3-carbonitrile]		289	
Cn1ncc(-c2ccc3c(=O)[nH]nc(CN)c3c2)c1-c1sc2cccnc2c1C#N [Example 4-275, 2-(4-(4-(aminomethyl)-1-oxo-1,2-dihydrophthalazin-6-yl)-1-methyl-1H-pyrazol-5-yl)thieno[3,2-b]pyridine-3-carbonitrile]		1880	
Cn1ncc(-c2ccc3c(=O)[nH]nc(C4(N)COC4)c3c2)c1-c1sc2ccccc2c1C#N [Example 9-9, 2-(4-(4-(3-aminooxetan-3-yl)-1-oxo-1,2-dihydrophthalazin-6-yl)-1-methyl-1H-pyrazol-5-yl)benzo[b]thiophene-3-carbonitrile]		10000	
Cn1ncc(-c2ccc3c(=O)[nH]nc(CN)c3n2)c1-c1sc2ccccc2c1C#N [Example 17-3, 2-[4-[8-(aminomethyl)-5-oxo-6H-pyrido[2,3-d]pyridazin-2-yl]-2-methyl-pyrazol-3-yl]benzothiophene-3-carbonitrile]		278	
